Experimental data published in the supplement of paper PMC5579334.
± gives the standard deviation of the averaged measurements.

Columns and labels:
HS-PSS [1] = assay: drug sensitivity score (DSS, CellTiter-Glo viability, 72 h) (DSS (dimensionless)); higher = more sensitive; extreme values may be limits of the assay
In short: (§1)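 After seeding 750–1000 cells per well of MPNST cell lines or primary human Schwann cells into 384-well plates preprinted with each compound at five concentrations in 10-fold steps, plates were kept 72 h at 37 °C, 5% CO2. Viability was read as CellTiter-Glo ATP luminescence relative to vehicle and positive-control wells, with duplicates averaged where present. The data were fitted with four-parameter logistic models. Drug sensitivity score and relative IC50, censored at the top concentration, derive from the fits, and percent inhibition refers to the top concentration.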

HS-Sch-2 [2] = assay: as above
In short: as §1

[3] = test system: HSC1 (primary human Schwann cells); assay: as above
In short: as §1

[4] = test system: HSC2 (primary human Schwann cells); assay: as above
In short: as §1

S1507-2 [5] = assay: as above
In short: as §1

S462 [6] = assay: as above
In short: as §1

ST8814 [7] = assay: as above
In short: as §1

STS26T [8] = assay: as above
In short: as §1

YST-1 [9] = assay: as above
In short: as §1

HS-PSS [10] = assay: drug sensitivity score (DSS, CellTox-Green cytotoxicity, 72 h) (DSS (dimensionless)); higher = more cytotoxic; extreme values may be limits of the assay
In short: (§2)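 For 72 h at 37 °C, MPNST cell lines and primary human Schwann cells were exposed in 384-well plates to five 10-fold compound dilutions. CellTox-Green, added before seeding at a final 1:1000 dilution, gave fluorescence from DNA released by disrupted cells. Signals were scaled to vehicle and positive-control wells, cultures failing plate quality control were left out, and four-parameter logistic fits were applied. Relative IC50 and drug sensitivity score were derived from the fits, with IC50 censored at the top concentration.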

[11] = test system: HSC1 (primary human Schwann cells); assay: as above
In short: as §2

[12] = test system: HSC2 (primary human Schwann cells); assay: as above
In short: as §2

S1507-2 [13] = assay: as above
In short: as §2

ST8814 [14] = assay: as above
In short: as §2

STS26T [15] = assay: as above
In short: as §2

HS-PSS [16] = assay: % inhibition of CellTiter-Glo viability at highest tested concentration (72 h), relative to DMSO and benzethonium chloride controls; higher = more inhibition
In short: as §1

HS-Sch-2 [17] = assay: as above
In short: as §1

[18] = test system: HSC1 (primary human Schwann cells); assay: as above
In short: as §1

[19] = test system: HSC2 (primary human Schwann cells); assay: as above
In short: as §1

S1507-2 [20] = assay: as above
In short: as §1

S462 [21] = assay: as above
In short: as §1

ST8814 [22] = assay: as above
In short: as §1

STS26T [23] = assay: as above
In short: as §1

YST-1 [24] = assay: as above
In short: as §1

Row | Compound | drug sensitivity score (HS-PSS [1]) | drug sensitivity score (HS-Sch-2 [2]) | drug sensitivity score [3] | drug sensitivity score [4] | drug sensitivity score (S1507-2 [5]) | drug sensitivity score (S462 [6]) | drug sensitivity score (ST8814 [7]) | drug sensitivity score (STS26T [8]) | drug sensitivity score (YST-1 [9]) | drug sensitivity score (HS-PSS [10]) | drug sensitivity score [11] | drug sensitivity score [12] | drug sensitivity score (S1507-2 [13]) | drug sensitivity score (ST8814 [14]) | drug sensitivity score (STS26T [15]) | % inhibition (HS-PSS [16]) | % inhibition (HS-Sch-2 [17]) | % inhibition [18] | % inhibition [19] | % inhibition (S1507-2 [20]) | % inhibition (S462 [21]) | % inhibition (ST8814 [22]) | % inhibition (STS26T [23]) | % inhibition (YST-1 [24])
1 | CCCS(=O)(=O)Nc1ccc(F)c(C(=O)c2c[nH]c3ncc(-c4ccc(Cl)cc4)cc23)c1F [Vemurafenib] (max concentration tested 10000 nM) | 1.03 | 1.24 | 6.16 | 6.66 | 0.879 ± 1.2 | 0 | 0 | 3.31 | 0 | 0 | 0 | 0 | 0 | 0.417 | 2.82 | 29.3% | 34.4% | 70.2% | 70.7% | 7.31 ± 3.8% | 12.6 ± 17% | 1.91% | 41.5% | 1.68%
2 | CC(C)C[C@H](NC(=O)[C@H](CCc1ccccc1)NC(=O)CN1CCOCC1)C(=O)N[C@@H](Cc1ccccc1)C(=O)N[C@@H](CC(C)C)C(=O)[C@@]1(C)CO1 [Carfilzomib] (max concentration tested 1000 nM) | 23.3 | 31.2 | 23 | 24.4 | 21.7 ± 1.4 | 29 ± 2 | 24.8 | 24.9 | 28.1 | 17.5 | 19.3 | 19.7 | 21.4 ± 2.3 | 21.7 | 21.5 | 99.9% | 102% | 103% | 101% | 102.9 ± 0.73% | 104 ± 1.3% | 102% | 103% | 101%
3 | CN[C@@H](C)C(=O)N[C@H]1CN(C(=O)CC(C)C)CC[C@H]2CC[C@@H](C(=O)NC(c3ccccc3)c3ccccc3)N2C1=O [AT-406] (max concentration tested 10000 nM) | 0.14 | 0 | 0 | 0 | 0.378 ± 0.28 | 0 | 0 | 12.4 | 0 | 0 | 0 | 0 | 13.1 ± 11 | 0 | 22.4 | 14.3% | 10.6% | -7.18% | -4.84% | 14.97 ± 0.11% | 3.84 ± 5.2% | 3.57% | 56% | 8.35%
4 | O=C(O)CC[C@H]1CC[C@@](c2cc(F)ccc2F)(S(=O)(=O)c2ccc(Cl)cc2)CC1 [MK-0752] (max concentration tested 1000 nM) | 0 | 0 | 1.49 | 1.16 | 0 | 0 | 0 | 0 | 0 | 0 | 0 | 0 | 0.0001 ± 0.00014 | 0 | 0 | 5.19% | 10.9% | 13.4% | 15.4% | -8.17 ± 8.2% | 6.43 ± 3.5% | -3.6% | 4.15% | 4.12%
5 | O=C(c1ccc(OCCN2CCCCC2)cc1)c1c(-c2ccc(O)cc2)sc2cc(O)ccc12 [Raloxifene] (max concentration tested 10000 nM) | 4.8 | 7.33 | 2.17 | 3.34 | 2.99 ± 0.22 | 0.649 ± 0.51 | 1.9 | 1.99 | 1.7 | 0 | 0 | 0 | 1.4 ± 1.7 | 1.85 | 0.897 | 44.5% | 85.8% | 42.1% | 41.8% | 54.55 ± 0.068% | 19.7 ± 3.4% | 36.5% | 41.3% | 25.5%
6 | CC/C(=C(\c1ccc(O)cc1)c1ccc(OCCN(C)C)cc1)c1ccccc1 [4-hydroxytamoxifen] (max concentration tested 10000 nM) | 6.38 | 7.34 | 5.78 | 5.65 | 5.41 ± 1.5 | 3.82 ± 1.3 | 5.33 | 3.45 | 2.94 | 3.7 | 1.81 | 7.53 | 0.592 ± 0.84 | 4.88 | 1.86 | 88.4% | 93.4% | 72.5% | 82.5% | 55.9 ± 8.7% | 46.1 ± 9.7% | 75.7% | 53% | 32.7%
7 | C=CC[C@@H]1/C=C(\C)C[C@H](C)C[C@H](OC)[C@H]2O[C@@](O)(C(=O)C(=O)N3CCCC[C@H]3C(=O)O[C@H](/C(C)=C/[C@@H]3CC[C@@H](O)[C@H](OC)C3)[C@H](C)[C@@H](O)CC1=O)[C@H](C)C[C@@H]2OC [Tacrolimus] (max concentration tested 10000 nM) | 0 | 0 | 0.469 | 0 | 0.168 ± 0.24 | 0 | 0.177 | 0 | 0 | 0 | 0 | 0 | 0 | 0 | 0 | 8.62% | -0.54% | 19.9% | 5.26% | 6.29 ± 12% | 1.38 ± 2.8% | 13.4% | 8.77% | 7.06%
8 | CNC(=O)c1ccccc1Sc1ccc2c(/C=C/c3ccccn3)n[nH]c2c1 [Axitinib] (max concentration tested 10000 nM) | 2.26 | 6.01 | 7.23 | 6.51 | 4.27 ± 3.4 | 6.12 ± 0.37 | 5.17 | 5.81 | 4.01 | 0 | 1.46 | 0.0899 | 1.12 ± 1.1 | 0.581 | 6.29 | 38% | 67.8% | 66.9% | 53.8% | 38.5 ± 19% | 52.1 ± 6.1% | 52.7% | 61.1% | 39.9%
9 | CCC1(c2ccc(N)cc2)CCC(=O)NC1=O (configuration not stated) [Aminoglutethimide] (max concentration tested 10000 nM) | 0 | 0 | 0 | 0 | 0 | 0 | 0 | 0 | 0 | 0 | 0 | 0 | 0 | 0 | 0 | 1.47% | 3.62% | 8.78% | -6.11% | 3.35 ± 1.2% | -7.67 ± 7.8% | -3.31% | 2.67% | -9.69%
10 | C/C(=C\c1csc(C)n1)[C@@H]1C[C@@H]2O[C@]2(C)CCC[C@H](C)[C@H](O)[C@@H](C)C(=O)C(C)(C)[C@@H](O)CC(=O)O1 [Patupilone] (max concentration tested 1000 nM) | 17.9 | 32.7 | 29.1 | 25.2 | 24.4 ± 1.7 | 37.7 ± 0.67 | 28.4 | 36.5 | 31 | 0 | 11.5 | 18.8 | 21.9 ± 2.8 | 23.9 | 36.6 | 42.2% | 91.9% | 70% | 73% | 80.9 ± 0.77% | 92.6 ± 0.95% | 84.4% | 96.8% | 78.1%
11 | O=C1c2c(O)ccc(O)c2C(=O)c2c(NCCNCCO)ccc(NCCNCCO)c21 [Mitoxantrone] (max concentration tested 1000 nM) | 1.94 | 4.38 | 2.89 | 5.2 | 2.8 ± 1.2 | 5.57 ± 0.84 | 2.63 | 2.45 | 10.7 | 0 | 0 | 0 | 0 | 1.65 | 1.34 | 28.8% | 42.7% | 37.8% | 43% | 43.44 ± 0.12% | 72.66 ± 0.27% | 46.7% | 53.5% | 77%
12 | O=c1[nH]c(=O)n([C@H]2C[C@H](O)[C@@H](CO)O2)cc1F [Floxuridine] (max concentration tested 10000 nM) | 2.58 | 17.9 | 6.07 | 10.6 | 5.09 ± 3.2 | 22.4 ± 2.9 | 12.5 | 21.5 | 14.7 | 0 | 1.27 | 0.287 | 0 | 2.95 | 7.21 | 30.7% | 84.7% | 53.1% | 53.8% | 31.3 ± 10% | 84.1 ± 3.6% | 57.8% | 77.3% | 68.3%
13 | CNC(=O)c1cccc(-c2ccc3c(N4CCOC[C@@H]4C)nc(N4CCOC[C@@H]4C)nc3n2)c1 [AZD2014] (max concentration tested 10000 nM) | 10.4 | 11.7 | 15.2 | 15 | 12.6 ± 1 | 11.1 ± 0.51 | 10.7 | 12 | 17.9 | 0 | 0 | 0 | 0 | 0 | 0 | 69.8% | 71% | 87.4% | 87.1% | 75.49 ± 0.4% | 66.2 ± 1.5% | 78.5% | 75.4% | 79.2%
